Measured values as given in publication PMC7415757, “Monocrotaline-induced liver toxicity in rat predicted by a combined in vitro physiologically based kinetic modeling approach” (Archives of Toxicology, 2020).
Read-outs that look alike come from different tables or passages of the source.

What was measured:
[1] = set-up: method as in Estep et al. 1991; conditions: rat, iv 60 mg/kg bw, ref Estep et al. 1991, cited from earlier work
[2] = Reported blood kinetics after iv [14C] monocrotaline (Estep et al. 1991); format: in vivo; conditions: rat, iv 60 mg/kg bw, from Estep et al. 1991
Experimental: The reported concentration nmol/g is assumed to be equal to nmol/ml or µM. The reported blood concentration is calculated as the sum of the plasma and RBC concentration.

[3] = Fraction unbound in rat serum by rapid equilibrium dialysis (RED); format: in vitro ADME; conditions: 37 °C, read-out: fub, in vivo (fraction unbound)
Experimental: The fub,in vivo was determined by rapid equilibrium dialysis (RED) (Waters et al. [2008]). […] The device was sealed with tape and incubated at 37 °C on a shaker at 250 rpm. After incubation for 5 h when the system reached equilibrium (van Liempd et al. [2011]), 50 µl of post-dialysis samples was collected from the serum and buffer chambers into separate eppendorf tubes. Subsequently, 50 µl of rat serum was added to the buffer samples and 50 µl of PBS was added to the serum samples. To precipitate the protein, 300 µl of ice-cold acetonitrile (90% v/v) was added to both tubes. After putting the mixtures on ice for 30 min, the mixtures were centrifuged at 15,000 g for 30 min at 4 °C, and the supernatants were diluted five times in 90% (v/v) acetonitrile and analyzed by LC–MS as described above. The measurements were performed in triplicate.

primary rat hepatocytes [4] = assay: Uptake of monocrotaline into primary rat hepatocytes (Tu et al. 2013); format: cell-based; conditions: scaled with 120 mg protein/g liver and 34 g liver/kg bw from Tu et al. ([2013])
[5] = Substrate depletion in incubations with pooled rat intestinal microsomes; format: in vitro ADME, rat (Sprague–Dawley)
Experimental: (§1) After 5 min of pre-incubation in a shaking water bath at 37 °C, the reactions were started by the addition of 1 mM NADPH. The reactions were carried out for 1 h and 2 h for liver and intestinal microsomes, respectively. For each incubation, a corresponding control incubated in the absence of NADPH was included by adding buffer instead of NADPH. To stop the metabolic conversion, 100 µl of ice-cold methanol was added and the sample was put on ice, then centrifuged at 5000 × g for 20 min at 4 °C using a microcentrifuge (CT15RE, VWR, Leuven, Belgium). Supernatants were diluted 200 times in 90% (v/v) acetonitrile and transferred to LC–MS vials. LC–MS analysis was performed using a Shimadzu Nexera XR LC-20AD SR UPLC system in tandem with a Shimadzu LCMS-8040 mass spectrometer (Shimadzu, Kyoto, Japan). From each incubation, 1 µl of supernatant was loaded onto a Luna Omega polar C18 100A LC column (1.6 µm 100 × 2.1 mm, Phenomenex) fitted with a FP polar precolumn (Phenomenex), using a flow rate of 0.3 ml/min. The temperature was set at 40 °C and 5 °C for column and sample, respectively. The mobile phase consisted of ultrapure water (solvent A) and acetonitrile (solvent B) both containing 0.1% (v/v) formic acid. The gradient began with 100% solvent A (0% B) for 1 min to wash away unwanted salts, followed by a linear gradient from 0 to 5% B till 8 min and a further increase to 100% B in 2 min, keeping the elution at 100% B for 0.5 min, then the column was set back to the starting conditions and equlibrated for 3.4 min before the next injection. […] For all incubations, three independent replicates were performed.
(§2) The ratio of Vmax and Km was calculated as the in vitro catalytic efficiency (kcat) expressed in […]. […] The rat liver weight of 8.5 g and small intestine weight of 3.5 g (see Table 1) (Brown et al. [1997]) were used to scaled the in vivo kcat values to values expressed in ml/min/tissue.

[6] = Substrate depletion in incubations with pooled rat liver microsomes; format: in vitro ADME, rat (Sprague–Dawley)
Experimental: as §1, §2

male Sprague–Dawley rats = conditions: IP single dose 0; 100; 200; 225; 300, 12 h after dosing, BW 100–130 g; ref Copple et al. [2002]; cited from earlier work
primary rat hepatocytes [7] = system: primary rat hepatocytes; set-up: method as in Tu et al. ([2013]); conditions: 2 µM, pH 7.4; ref Tu et al. ([2013]); cited from earlier work
HepaRG cells = system: HepaRG cells; set-up: method as in Louisse et al. ([2019]); conditions: 24 h exposure; ref Louisse et al. ([2019]); cited from earlier work
[8] = set-up: method as in IARC [2019]; conditions: possibly carcinogenic in humans; ref IARC [2019]; cited from earlier work
[9] = intestine, 20.6 mg microsomal protein/g small intestine, present study
[10] = small intestine, PBK model code
[11] = liver, 35 mg microsomal protein/g liver, present study

C[C@H]1C(=O)O[C@@H]2CCN3CC=C(COC(=O)[C@](C)(O)[C@]1(C)O)[C@H]23 [Monocrotaline]
Reported concentration of monocrotaline equivalents, RBCs ([1]; 5 min): 144.00 µM | Reported concentration of monocrotaline equivalents, plasma ([1]; 5 min): 113.00 µM | Reported concentration of monocrotaline equivalents, RBCs ([1]; 15 min): 113.46 µM | Reported concentration of monocrotaline equivalents, plasma ([1]; 15 min): 81.88 µM | Reported concentration of monocrotaline equivalents, RBCs ([1]; 30 min): 100.06 µM | Reported concentration of monocrotaline equivalents, plasma ([1]; 30 min): 67.35 µM | Reported concentration of monocrotaline equivalents, RBCs ([1]; 60 min): 100.13 µM | Reported concentration of monocrotaline equivalents, plasma ([1]; 60 min): 49.84 µM | Reported concentration of monocrotaline equivalents, RBCs ([1]; 120 min): 104.89 µM | Reported concentration of monocrotaline equivalents, plasma ([1]; 120 min): 29.65 µM | Reported concentration of monocrotaline equivalents, RBCs ([1]; 180 min): 99.93 µM | Reported concentration of monocrotaline equivalents, plasma ([1]; 180 min): 21.82 µM | Reported concentration of monocrotaline equivalents, RBCs ([1]; 240 min): 99.60 µM | Reported concentration of monocrotaline equivalents, plasma ([1]; 240 min): 17.11 µM | Reported concentration of monocrotaline equivalents, RBCs ([1]; 300 min): 79.81 µM | Reported concentration of monocrotaline equivalents, plasma ([1]; 300 min): 13.07 µM | Reported concentration of monocrotaline equivalents, RBCs ([1]; 360 min): 85.50 µM | Reported concentration of monocrotaline equivalents, plasma ([1]; 360 min): 12.16 µM | Reported concentration of monocrotaline equivalents, RBCs ([1]; 420 min): 81.00 µM | Reported concentration of monocrotaline equivalents, plasma ([1]; 420 min): 11.00 µM | Reported concentration of monocrotaline equivalents, blood (plasma + RBCs) ([2]; 5 min): 257.00 µM | Reported concentration of monocrotaline equivalents, blood (plasma + RBCs) ([2]; 15 min): 195.34 µM | Reported concentration of monocrotaline equivalents, blood (plasma + RBCs) ([2]; 30 min): 167.41 µM | Reported concentration of monocrotaline equivalents, blood (plasma + RBCs) ([2]; 60 min): 149.97 µM | Reported concentration of monocrotaline equivalents, blood (plasma + RBCs) ([2]; 120 min): 134.54 µM | Reported concentration of monocrotaline equivalents, blood (plasma + RBCs) ([2]; 180 min): 121.75 µM | Reported concentration of monocrotaline equivalents, blood (plasma + RBCs) ([2]; 240 min): 116.71 µM | Reported concentration of monocrotaline equivalents, blood (plasma + RBCs) ([2]; 300 min): 92.88 µM | Reported concentration of monocrotaline equivalents, blood (plasma + RBCs) ([2]; 360 min): 97.66 µM | Reported concentration of monocrotaline equivalents, blood (plasma + RBCs) ([2]; 420 min): 92.00 µM | fraction unbound at 5 h, 150 µM [3]: 0.53 ± 0.12 | rate for uptake in the liver of rats, scaled (primary rat hepatocytes [4]): 3.55 µmol/h/kg bw | Km ([5]; Sprague-Dawley, rat, pooled rat intestinal microsomes, pH 7.4, intestine, present study): 13.4 µM | Scaled Vmax [5, 9]: 0.4 nmol/min/g tissue | Scaled kcat [5, 9]: 0.03 ml/min/g tissue | Vmax ([5]; intestine, present study): 0.02 nmol/min/mg microsomal protein | Scaled kcat ([5]; small intestine weight 3.5 g, present study): 0.1 ml/min/ tissue | KmSiM2, affinity constant [5, 10]: 13.39 µmol/L | VmaxSiM2c, unscaled maximum rate of metabolism [5, 10]: 0.02 nmol/min-1/mg protein | Km ([6]; Sprague-Dawley, rat, pH 7.4, liver, present study): 9.2 µM | scaled liver kcat, times lower than lasiocarpine ([6]; liver): 41.8 times | scaled liver kcat, times lower than riddelliine ([6]; liver): 4.3 times | Scaled kcat ([6]; liver weight 8.5 g, present study): 1.9 ml/min/ tissue | Scaled Vmax [6, 11]: 2.1 nmol/min/g tissue | Scaled kcat [6, 11]: 0.2 ml/min/g tissue | KmLM1, affinity constant ([6]; liver, PBK model code): 9.22 µmol/L | VmaxLM1c, unscaled maximum rate of metabolism ([6]; liver, PBK model code): 0.06 nmol/min-1/mg protein | Vmax ([6]; liver, present study): 0.06 nmol/min/mg microsomal protein | POD: NOAEL, increased plasma ALT (male Sprague–Dawley rats): 100 mg/kg bw | overall rate for uptake into primary rat hepatocytes (primary rat hepatocytes [7]): 14.5 pmol/mg protein/min | cytotoxicity in HepaRG cells (HepaRG cells): did not exhibit cytotoxicity | IARC carcinogenicity category [8]: 2B
